The record followed here is patent EP0399422A1, “Benzocycloalkane derivatives and production thereof” (Takeda Chemical Industries, Ltd., priority 1989, dated 1990).

Assay [1] relates to Acyl-CoA:cholesterol acyl transferase (ACAT). Kind of assay: Acyl-CoA:cholesterol acyl transferase (ACAT) inhibiting activity. Format: biochemical, male Sprague-Dawley rats. Further details: tested at 1 µM. The note with it: inhibition of labeled cholesterol ester formation at 10⁻⁶ M of the test compounds; small intestine mucosa microsome fraction. On the procedure: An ACAT enzyme preparation was obtained from the small intestine mucosa microsome fraction from male Sprague-Dawley rats of 6 weeks of age fasted for 20 hours, as described by Heider et al. [Journal of Lipid Research, 24, 1127 (1982)].
The ACAT activity was calculated by determining the yield of a labeled cholesterol ester from [1-¹⁴C]oleoyl-CoA and endogenous cholesterol using the method of Helgerud et al. [Journal of Lipid Research, 22, 271 (1981)].
The inhibition percentages of the labeled cholesterol ester formation at 10⁻⁶ M of the test compounds are shown in Table 1 as ACAT inhibiting activity indices.

The test system of another assay is cholesterol-loaded rats. Kind of assay: Plasma cholesterol lowering activity in cholesterol-loaded rats. Format: in vivo, Male Sprague-Dawley rats. Conditions: 1% cholesterol diet containing 0.01% test compound for 4 days; dose 8.5 mg/kg/day; control group 266 + 46; p<0.01. On the procedure:
Male Sprague-Dawley rats of 7 weeks of age were fed with a 1% cholesterol diet (containing 0.5% cholic acid and 5% olive oil) for 3 days, then grouped by plasma cholesterol level and further fed with the same diet containing 0.01% test compound for 4 days. Blood samples were collected at 8:30 a.m. to 10:00 a.m. while the animals were satiated, and plasma cholesterol levels were determined enzymatically. Intakes of the compound were calculated from food intake data.

Marks after values point to notes of the source that are not given here.

Turning to `O=C(Nc1ccc(F)cc1F)N(Cc1ccccc1Cl)C1Cc2ccccc2C1` [Example 1, N-(2-chlorobenzyl)-N′-(2,4-difluorophenyl)-N-(2-indanyl)urea], the “% ACAT inhibition” value in assay [1] is given as 84%. The Plasma cholesterol in the assay on cholesterol-loaded rats is listed as 128 + 47* mg/dl.

Turning to `Cc1ccc(CN(C(=O)Nc2ccc(F)cc2F)C2Cc3ccccc3C2)c(C)c1` [Example 15, N-(2,4-Difluorophenyl)-N′-(2-indanyl)-N′-(2,4-dimethylbenzyl)urea], the “% ACAT inhibition” value in assay [1] was 88%.

With `Cc1cc(O)c(C(C)C)cc1CN(C(=O)Nc1ccc(F)cc1F)C1Cc2ccccc2C1` [Example 45, N-(2,4-Difluorophenyl)-N′-(4-hydroxy-5-isopropyl-2-methylbenzyl)-N′-(2-indanyl)urea], in assay [1], the “% ACAT inhibition” value amounted to 96%.

For `Cc1cc(CN(C(=O)Nc2ccc(F)cc2F)C2Cc3ccccc3C2)c(C(C)C)cc1O` [Example 46, N-(2,4-Difluorophenyl)-N′-(4-hydroxy-2-isopropyl-5-methylbenzyl)-N′-(2-indanyl)urea], the “% ACAT inhibition” value in assay [1] stood at 77%.

Regarding `Cc1cccc(CN(C(=O)Nc2ccc(F)cc2F)C2Cc3ccccc3C2)c1` [Example 11, N-(2,4-Difluorophenyl)-N′-(2-indanyl)-N′-(3-methylbenzyl)urea], in assay [1], the “% ACAT inhibition” value stood at 64%.

With `O=C(Nc1ccc(F)cc1F)N(C1Cc2ccccc2C1)C(c1ccccc1)c1ccccc1` [Example 9, N-(2,4-Difluorophenyl)-N′-(2-indanyl)-N′-diphenyl methylurea], the “% ACAT inhibition” value in assay [1] worked out at 53%.

Turning to `Cc1cc(CN(C(=O)Nc2ccc(F)cc2F)C2Cc3ccccc3C2)c(C)c(C)c1O` [Example 39, N-(2,4-Difluorophenyl)-N′-(4-hydroxy-2,3,5-trimethylbenzyl)-N′-(2-indanyl)urea], in assay [1], the “% ACAT inhibition” value was 89%.

Take `CCC(c1ccccc1)N(C(=O)Nc1ccc(F)cc1F)C1Cc2ccccc2C1` (stereo not drawn) [Example 7, N-(2,4-Difluorophenyl)-N′-(2-indanyl)-N′-(1-phenylpropyl)urea]: the “% ACAT inhibition” value in assay [1] is given as 72%.

On to `CC(C)c1cc(CN(C(=O)Nc2ccc(F)cc2F)C2Cc3ccccc3C2)cc(C(C)C)c1O` [Example 40, N-(2,4-Difluorophenyl)-N′-(4-hydroxy-3,5-diisopropylbenzyl)-N′-(2-indanyl)urea], for which the “% ACAT inhibition” value in assay [1] is on record as 83%.

`CC(C)(C)c1cc(CN(C(=O)Nc2ccc(F)cc2F)C2Cc3ccccc3C2)cc(C(C)(C)C)c1O` [Example 42, N-(3,5-Di-tert-butyl-4-hydroxybenzyl)-N′-(2,4-difluorophenyl)-N-(2-indanyl)urea]: the “% ACAT inhibition” value in assay [1] is reported as 62%.

Turning to `COc1ccc(OC)c2c1CC(N(Cc1ccccc1)C(=O)Nc1ccc(F)cc1F)C2` [Example 28, N-Benzyl-N′-(2,4-difluorophenyl)-N-(4,7-dimethoxy-2-indanyl)urea], the “% ACAT inhibition” value in assay [1] is reported as 56%.
